One assay concerns the target T1, ADORA2a/CHOK1 cells (Homo sapiens, UniProt P29274).
T1 construct: host or cells: CHO-K1
Kind of assay: Inhibitory activity for ADORA2a/CHOK1 cells (cAMP detection, adenosine as agonist). Type of assay: cell-based. The following applies: for inhibition at 0.1 µM: CHO-K1, 100 nM compound, read-out: Inhibition rate at 100 nM; for inhibition at 1 µM: CHO-K1, 1000 nM compound, read-out: Inhibition rate at 1000 nM. Here is the method: Test Example 2: Study on Inhibitory Activity for ADORA2a/CHOK1 Cells
ADORA2a/CHOK1 cells (Cobai, CBP71017).
FBS was added to Ham's F-12 medium to a concentration of 10% (v/v), Zeocin was added to a final concentration of 200 μg/mL, and Hygromycin B was added to a final concentration of 100 μg/mL, and the resulting mixture was stored at 4° C. for later use.
A certain amount of adenosine was precisely weighed and placed into a 1.5 mL EP tube, then a certain volume of cell culture medium was added, the resulting mixture was incubated at 37° C. for dissolution, thereby a 10 mM stock solution was prepared. The stock solution was diluted with cell culture medium at 1:1000 to get 10 μM adenosine solution.
The compound to be tested was dissolved in DMSO to form a 10 mM stock solution, and the stock solution was stored in a refrigerator at 4° C. for later use. The stock solution was diluted with the 10 μM of adenosine solution to 2000 nM or 200 nM for later test.
(1) CHO-K1 cells stably expressing ADORA2A receptor were cultured in a 37° C., 5% CO2 cell incubator. When the cell confluence reached about 80%, the cells were digested by trypsin, dispersed and counted; (2) the cell concentration was adjusted to 6×10^5 cells/mL according to the counting results; (3) the cells was inoculated into a white 384-well cell culture plate at 5 μL per well (about 3000 cells/well).
All groups were provided with multiple wells, the adenosine-free cell culture medium was added to the wells of the Blank group (5 μL/well); 10 μM adenosine solution was added to the wells of the Agonist group (5 μL/well); the diluted compound was added to the wells of the test compound group (5 μL/well). After the addition of the compound was completed, the 384-well plate was centrifuged at 2500 rpm for 30 seconds to fully mix the compound and the medium, then placed in a 25° C. incubator and incubated for 30 min.
A certain volume of cAMP-d2 was taken, and diluted by adding Lysis & Detection Buffer at the ratio of 1:5 to prepare Solution A.
A certain volume of cAMP-Cryptate was taken, and diluted by adding Lysis & Detection Buffer at the ratio of 1:5 to prepare Solution B.
(2) After 30 min of incubation in step 2 was completed, addition of detection solution was carried out. The 384-well plate was taken out, 5 μL of Solution A was added to each well, and then 5 μL of Solution B was added to each well, then the 384-well plate was covered with sealing membrane, centrifuged at 2500 rpm for 30 s (to fully mix the detection solution and medium), and incubated in a thermostat at 25° C. for 1 h.
After the incubation, the 384-well plate was taken out, and detected by PHERA Star FS to read data, detection wavelength: 620 nm/665 nm.
inhibition rate %=(1−(RCompound−RBlank)/(RAgonist−RBlank))*100%
wherein, RCompound represented the R Value of the test compound group, RAgonist represented the R value of the Agonist group, and RBlank represented the R value of the Blank group.

The target in assay [1] is T2, Adenosine A1 receptor (human) membrane (Homo sapiens, UniProt P30542).
T2 construct: purchased PerkinElmer ES-010-M400UA
T2 sequence (P30542 1-326): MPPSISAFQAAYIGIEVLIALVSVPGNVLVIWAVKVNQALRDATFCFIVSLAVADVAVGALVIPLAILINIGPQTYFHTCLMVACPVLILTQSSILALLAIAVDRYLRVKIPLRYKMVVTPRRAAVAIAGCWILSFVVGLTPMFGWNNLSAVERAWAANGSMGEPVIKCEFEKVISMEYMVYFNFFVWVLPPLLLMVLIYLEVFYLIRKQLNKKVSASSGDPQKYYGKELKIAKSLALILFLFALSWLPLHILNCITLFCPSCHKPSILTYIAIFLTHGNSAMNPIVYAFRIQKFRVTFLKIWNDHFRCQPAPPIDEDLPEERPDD
Put plainly: Determination of competitive inhibition constant (Ki) for adenosine A1 receptor, [3H]-DPCPX radioligand. The following applies: 1.0 nM [3H]-DPCPX. The format is binding. In a few lines:
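Human A1 receptor membranes (2.5 μg/well) incubated with 1.0 nM [3H]-DPCPX and test compound for 1 h at room temperature in HEPES/MgCl2/CaCl2/NaCl buffer, pH 7.4; 1000 nM CGS-15943 defined low control. Bound radioactivity collected on PEI-treated GF/C filters and counted; IC50 converted to Ki via Cheng–Prusoff using ligand Kd.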

Drawing on US20210395226A1, “SUBSTITUTED ARYL COMPOUND AND PREPARATION METHOD THEREFOR AND USE THEREOF” (SICHUAN KELUN-BIOTECH BIOPHARMACEUTICAL CO., LTD., priority 2018, published 2021), this text covers inhibition and Ki for two molecules.

T1 sequence (P29274 whole entry): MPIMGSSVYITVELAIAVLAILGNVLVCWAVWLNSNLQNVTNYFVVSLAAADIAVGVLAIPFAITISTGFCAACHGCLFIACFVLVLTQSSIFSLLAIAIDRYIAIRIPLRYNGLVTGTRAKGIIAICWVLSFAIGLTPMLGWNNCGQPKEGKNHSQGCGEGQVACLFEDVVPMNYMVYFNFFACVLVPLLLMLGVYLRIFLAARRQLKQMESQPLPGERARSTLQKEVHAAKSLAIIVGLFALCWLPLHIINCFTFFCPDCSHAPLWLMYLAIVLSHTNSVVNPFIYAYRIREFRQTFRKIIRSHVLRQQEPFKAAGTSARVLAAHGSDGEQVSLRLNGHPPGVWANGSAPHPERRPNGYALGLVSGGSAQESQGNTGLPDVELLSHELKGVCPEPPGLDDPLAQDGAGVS

Turning to `Cc1cc(-c2cnc(NC(=O)N3CCOCC3)nc2-c2ccc(F)cc2)cc(Cl)n1` [Compound 19, N-(5-(2-chloro-6-methylpyridin-4-yl)-4-(4-fluorophenyl)pyrimidin-2-yl) morpholine-4-carboxamide], at ADORA2a/CHOK1 cells, the inhibition – broadly, the drop in the measured response relative to a control, in per cent – at 0.1 µM stood at 33.9% and the inhibition at 1 µM came out at 94.4%. Further, in assay [1], the inhibition constant (Ki) – broadly, a measure of affinity in units of concentration, obtained from inhibition or displacement – worked out at 1400 nM.

As for `Cc1ncnc2ccc(-c3cnc(NC(=O)N4CCOCC4)nc3-c3ccc(F)cc3)cc12` [Compound 11, N-(4-(4-fluorophenyl)-5-(4-methylquinazolin-6-yl)pyrimidin-2-yl) morpholine-4-carboxamide], at ADORA2a/CHOK1 cells, the inhibition at 0.1 µM turned out to be 72% and the inhibition at 1 µM stood at 112%. Also, the Ki in assay [1] is 204 nM.
